Laboratory results reported in patent US20240101548A1, “HYDROXAMATE COMPOUND, PREPARATION METHOD THEREFOR AND APPLICATION THEREOF” (SHENZHEN CHIPSCREEN BIOSCIENCES CO., LTD., priority 2020, published 2024).
Where two headings read alike, the source gives them in different places.

Tested on: IL-10-induced JAK1/TYK2 signal pathway
Test: IL-10-induced JAK1/TYK2 signal pathway STAT3-Luc reporter gene assay in U2OS cells
Type: cell-based, human
Settings: Homo sapiens, read-out: Half inhibition dose (IC50) on IL-10-induced JAK1/TYK2 signal pathway
Method in brief: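 Luciferase read-out (560 nm) corrected by GFP signal (Ex485/Em520) gives IL-10 pathway activity, and IC50 is derived from inhibition rates. Cells were U2OS transfected with IL-10R1 plus STAT3-Luc reporter, pretreated 6 h with 0.1–300 nM compound, then stimulated 24 h with IL-10 at 10 ng/mL.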

[1] = U2OS cells, STAT3-Luc reporter, IL-10 10 ng/mL
[2] = U2OS, U2OS cells, STAT3-Luc reporter, IL-10 10 ng/mL

Row | SMILES | IC50 [1] | IC50 [2] | further results
1 | CCONC(=O)c1cnc(Nc2cc(C)nc(C)n2)cc1Nc1ccc(C(F)(F)F)cc1N(C)S(C)(=O)=O [Example 202, 6-((2,6-dimethylpyrimidin-4-yl)amino)-N-ethoxy-4-((2-(N-methylmethanesulfonamido)-4-(trifluoromethyl)phenyl)amino)nicotinamide] | 0.412 nM |  | 
2 | CCONC(=O)c1cnc(Nc2cc(C)nc(C)n2)cc1Nc1cccc(-c2ncccn2)c1OC [Example 212] |  |  | IC50 (U2OS): 0.271 nM
3 | CCONC(=O)c1cnc(Nc2cc(C)nc(C)n2)cc1Nc1cc(F)cc(-c2ncccn2)c1OC [Example 215, 6-((2,6-dimethylpyrimidin-4-yl)amino)-N-ethoxy-4-((5-fluoro-2-methoxy-3-(pyrimidin-2-yl)phenyl)amino)nicotinamide] |  | 0.102 nM | 
4 | CCONC(=O)c1cnc(NC(=O)C2CC2)cc1Nc1cccc(-c2ncc(Cl)cn2)c1OC [Example 219, 4-((3-(5-chloropyrimidin-2-yl)-2-methoxyphenyl)amino)-6-(cyclopropylcarboxamido)-N-ethoxy nicotinamide] |  | 1.09 nM | 
5 | CCONC(=O)c1cnc(Nc2cc(C)nc(C)n2)cc1Nc1cccc(-c2ncc(C)cn2)c1OC [Example 238, 6-((2,6-dimethylpyrimidin-4-yl)amino)-N-ethoxy-4-((2-methoxy-3-(5-methylpyrimidin-2-yl)phenyl)amino)nicotinamide] | 0.168 nM |  | 
